Reference: ChEMBL document CHEMBL5346978, “Exploration of Tetrahydroisoquinoline- and Benzo[c]azepine-Based Sphingosine 1-Phosphate Receptor 1 Agonists for the Treatment of Multiple Sclerosis” (J Med Chem, 2023)

Legend:
[1] = target: T1, Sphingosine 1-phosphate receptor 4 (Homo sapiens, UniProt O95977); test: Agonist activity at S1P4 (unknown origin) expressed in PathHunter CHO-K1 EDG1 beta-arrestin cells assessed as beta-arrestin recruitment; assay type: functional, cell-based
T1 sequence (O95977 whole entry): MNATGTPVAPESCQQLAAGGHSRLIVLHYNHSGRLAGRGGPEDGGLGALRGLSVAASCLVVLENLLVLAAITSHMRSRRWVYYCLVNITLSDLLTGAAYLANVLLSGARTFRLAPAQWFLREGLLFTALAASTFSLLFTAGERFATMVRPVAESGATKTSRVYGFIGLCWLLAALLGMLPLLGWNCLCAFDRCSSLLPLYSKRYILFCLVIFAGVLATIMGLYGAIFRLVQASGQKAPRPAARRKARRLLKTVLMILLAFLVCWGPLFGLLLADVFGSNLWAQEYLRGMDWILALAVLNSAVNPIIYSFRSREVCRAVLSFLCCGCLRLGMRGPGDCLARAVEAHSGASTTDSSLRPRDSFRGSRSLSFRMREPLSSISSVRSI

[2] = target: T1, Sphingosine 1-phosphate receptor 4; test: Agonist activity at S1P4 (unknown origin) expressed in CHO cells assessed as Ca2+ activation; assay type: functional, cell-based
[3] = target: Sphingosine 1-phosphate receptor 3 (Homo sapiens, UniProt Q99500); test: Agonist activity at S1P3 (unknown origin) expressed in PathHunter CHO-K1 EDG1 beta-arrestin cells assessed as beta-arrestin recruitment; assay type: functional, cell-based
CYP3A4 = CYP3A4 (Homo sapiens, UniProt P08684); test: Inhibition of CYP3A4 in human liver microsomes using midazolam as substrate assessed as residual activity at 10 uM preincubated for 5 mins followed by substrate addition and measured after 15 mins in presence of NADPH by LC-MS/MS analysis; assay type: ADME, Microsome; conditions: probe midazolam, time 20 min, read-out: Activity
[4] = target: T2, Sphingosine 1-phosphate receptor 1 (Homo sapiens, UniProt P21453); test: Agonist activity at S1P1 (unknown origin) expressed in human HEK293/Galpha15 cells assessed as Ca2+ activation at 1 uM measured for 2 hrs by FLIPR analysis relative to control; assay type: functional, cell-based
[5] = target: T2, Sphingosine 1-phosphate receptor 1; test: Agonist activity at S1P1 (unknown origin) expressed in human HEK293/Galpha15 cells assessed as Ca2+ activation measured for 2 hrs by FLIPR analysis; assay type: functional, cell-based
[6] = target: T2, Sphingosine 1-phosphate receptor 1; test: Agonist activity at S1P1 (unknown origin) expressed in PathHunter CHO-K1 EDG1 beta-arrestin cells assessed as beta-arrestin2 recruitment incubated for 90 mins by chemiluminescence based assay; assay type: functional, cell-based
[7] = Microsomal stability in mouse liver microsomes assessed as parent compound remaining preincubated for 5 mins followed by NADPH addition measured after 60 mins by LC-MS/MS analysis; assay type: ADME, Microsome; conditions: time 65 min, read-out: Stability
CYP2D6 = CYP2D6 (Homo sapiens, UniProt P10635); test: Inhibition of CYP2D6 in human liver microsomes using dextromethorphan as substrate assessed as residual activity at 10 uM preincubated for 5 mins followed by substrate addition and measured after 15 mins in presence of NADPH by LC-MS/MS analysis; assay type: ADME, Microsome; conditions: probe dextromethorphan, time 20 min, read-out: Activity
CYP2C9 = CYP2C9 (Homo sapiens, UniProt P11712); test: Inhibition of CYP2C9 in human liver microsomes using diclofenac as substrate assessed as residual activity at 10 uM preincubated for 5 mins followed by substrate addition and measured after 15 mins in presence of NADPH by LC-MS/MS analysis; assay type: ADME, Microsome; conditions: probe diclofenac, time 20 min, read-out: Activity
[8] = Microsomal stability in rat liver microsomes assessed as parent compound remaining preincubated for 5 mins followed by NADPH addition measured after 60 mins by LC-MS/MS analysis; assay type: ADME, Microsome; conditions: time 65 min, read-out: Stability
[9] = target: T2, Sphingosine 1-phosphate receptor 1; test: Agonist activity at S1P1 (unknown origin) expressed in PathHunter CHO-K1 EDG1 beta-arrestin cells assessed as beta-arrestin2 recruitment at 1 uM incubated for 90 mins by chemiluminescence based assay relative to control; assay type: functional, cell-based; conditions: filed as agonist
CYP1A2 = target: T3, CYP1A2 (Homo sapiens, UniProt P05177); test: Inhibition of CYP1A2 in human liver microsomes using phenacetin as substrate assessed as residual activity at 10 uM preincubated for 5 mins followed by substrate addition and measured after 15 mins in presence of NADPH by LC-MS/MS analysis; assay type: ADME, Microsome; conditions: probe phenacetin, time 20 min, read-out: Activity
T3 sequence (P05177 whole entry): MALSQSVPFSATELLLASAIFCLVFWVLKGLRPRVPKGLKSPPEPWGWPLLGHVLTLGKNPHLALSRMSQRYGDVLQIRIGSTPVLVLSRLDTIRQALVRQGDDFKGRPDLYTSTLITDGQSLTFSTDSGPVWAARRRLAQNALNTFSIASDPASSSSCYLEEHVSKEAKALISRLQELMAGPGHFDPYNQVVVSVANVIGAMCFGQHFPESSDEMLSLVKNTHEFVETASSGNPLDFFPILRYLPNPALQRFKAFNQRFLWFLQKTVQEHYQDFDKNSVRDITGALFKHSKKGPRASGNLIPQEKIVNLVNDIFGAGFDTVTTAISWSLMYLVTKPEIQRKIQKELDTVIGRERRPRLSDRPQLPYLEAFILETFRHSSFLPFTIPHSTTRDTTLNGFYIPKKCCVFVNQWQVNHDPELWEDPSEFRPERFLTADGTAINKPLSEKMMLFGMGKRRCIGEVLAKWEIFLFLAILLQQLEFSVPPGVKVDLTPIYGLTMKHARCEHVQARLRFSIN

[10] = Microsomal stability in human liver microsomes assessed as parent compound remaining preincubated for 5 mins followed by NADPH addition measured after 60 mins by LC-MS/MS analysis; assay type: ADME, Microsome; conditions: time 65 min, read-out: Stability
[11] = Microsomal stability in rat liver microsomes assessed as parent compound remaining preincubated for 5 mins followed by NADPH addition measured after 30 mins by LC-MS/MS analysis; assay type: ADME, Microsome; conditions: time 35 min, read-out: Stability
[12] = Microsomal stability in human liver microsomes assessed as parent compound remaining preincubated for 5 mins followed by NADPH addition measured after 30 mins by LC-MS/MS analysis; assay type: ADME, Microsome; conditions: time 35 min, read-out: Stability
[13] = Microsomal stability in mouse liver microsomes assessed as parent compound remaining preincubated for 5 mins followed by NADPH addition measured after 30 mins by LC-MS/MS analysis; assay type: ADME, Microsome; conditions: time 35 min, read-out: Stability

CYP2C9, sequence (P11712 whole entry): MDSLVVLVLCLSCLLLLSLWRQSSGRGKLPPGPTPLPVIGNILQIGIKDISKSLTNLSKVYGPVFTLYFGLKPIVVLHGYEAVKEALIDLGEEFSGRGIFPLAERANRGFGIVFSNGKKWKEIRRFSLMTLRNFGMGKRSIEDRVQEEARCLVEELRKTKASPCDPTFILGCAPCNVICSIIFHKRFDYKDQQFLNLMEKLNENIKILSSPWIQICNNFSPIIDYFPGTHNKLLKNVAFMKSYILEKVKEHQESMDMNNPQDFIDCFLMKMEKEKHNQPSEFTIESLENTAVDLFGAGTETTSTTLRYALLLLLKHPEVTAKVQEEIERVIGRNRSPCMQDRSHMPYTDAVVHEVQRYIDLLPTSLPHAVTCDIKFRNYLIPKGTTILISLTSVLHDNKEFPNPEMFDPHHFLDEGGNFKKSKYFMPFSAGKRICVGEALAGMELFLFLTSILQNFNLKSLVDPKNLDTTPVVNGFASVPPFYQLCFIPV
T2 sequence (P21453 whole entry): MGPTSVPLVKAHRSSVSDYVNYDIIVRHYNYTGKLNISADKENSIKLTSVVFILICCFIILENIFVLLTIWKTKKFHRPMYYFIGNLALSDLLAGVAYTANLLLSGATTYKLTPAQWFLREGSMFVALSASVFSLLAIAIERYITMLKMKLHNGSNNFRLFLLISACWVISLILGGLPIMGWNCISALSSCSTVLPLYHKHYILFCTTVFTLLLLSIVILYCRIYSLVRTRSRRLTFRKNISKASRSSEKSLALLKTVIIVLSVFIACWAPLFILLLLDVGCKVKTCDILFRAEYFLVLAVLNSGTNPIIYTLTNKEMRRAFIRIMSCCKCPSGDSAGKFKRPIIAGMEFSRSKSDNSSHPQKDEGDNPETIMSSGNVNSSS
CYP2D6, sequence (P10635 whole entry): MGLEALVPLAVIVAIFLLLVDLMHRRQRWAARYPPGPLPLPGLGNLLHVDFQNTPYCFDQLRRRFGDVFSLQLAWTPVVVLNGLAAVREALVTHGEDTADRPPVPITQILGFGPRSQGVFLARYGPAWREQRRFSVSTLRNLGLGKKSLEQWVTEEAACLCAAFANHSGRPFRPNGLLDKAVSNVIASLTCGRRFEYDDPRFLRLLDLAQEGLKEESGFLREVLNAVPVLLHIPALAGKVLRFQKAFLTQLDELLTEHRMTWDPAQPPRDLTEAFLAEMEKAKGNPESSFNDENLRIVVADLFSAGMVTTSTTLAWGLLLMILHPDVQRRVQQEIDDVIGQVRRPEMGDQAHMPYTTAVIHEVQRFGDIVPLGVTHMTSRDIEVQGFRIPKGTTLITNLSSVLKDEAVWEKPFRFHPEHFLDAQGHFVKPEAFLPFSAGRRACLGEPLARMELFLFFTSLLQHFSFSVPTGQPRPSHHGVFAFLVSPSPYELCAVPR
CYP3A4, sequence (P08684 whole entry): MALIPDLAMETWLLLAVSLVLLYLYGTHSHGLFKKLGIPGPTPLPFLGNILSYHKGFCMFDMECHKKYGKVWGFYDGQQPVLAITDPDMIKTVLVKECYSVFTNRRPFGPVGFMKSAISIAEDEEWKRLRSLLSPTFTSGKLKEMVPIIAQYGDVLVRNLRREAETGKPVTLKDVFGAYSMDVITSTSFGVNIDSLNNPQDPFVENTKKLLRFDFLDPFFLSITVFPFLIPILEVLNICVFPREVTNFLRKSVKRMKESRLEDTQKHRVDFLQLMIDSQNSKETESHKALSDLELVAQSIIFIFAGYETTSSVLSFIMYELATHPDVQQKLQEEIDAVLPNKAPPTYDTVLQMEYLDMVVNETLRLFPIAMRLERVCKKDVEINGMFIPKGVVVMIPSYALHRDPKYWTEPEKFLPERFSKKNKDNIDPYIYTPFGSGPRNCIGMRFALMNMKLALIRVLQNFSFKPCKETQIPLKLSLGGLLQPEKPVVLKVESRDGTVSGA
Sphingosine 1-phosphate receptor 3, sequence (Q99500 whole entry): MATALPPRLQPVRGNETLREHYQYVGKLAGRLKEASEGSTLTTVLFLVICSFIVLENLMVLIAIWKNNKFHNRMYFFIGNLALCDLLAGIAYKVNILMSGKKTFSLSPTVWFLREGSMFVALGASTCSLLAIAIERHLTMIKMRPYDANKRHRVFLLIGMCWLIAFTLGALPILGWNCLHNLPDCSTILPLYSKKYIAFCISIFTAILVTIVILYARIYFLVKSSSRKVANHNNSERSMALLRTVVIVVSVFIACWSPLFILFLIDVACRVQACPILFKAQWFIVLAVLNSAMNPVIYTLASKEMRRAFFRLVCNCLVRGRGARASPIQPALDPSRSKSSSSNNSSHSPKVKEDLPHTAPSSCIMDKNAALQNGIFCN

SMILES | activity at 0.25 h, 10 µM (CYP3A4) | Activity ([4]; filed as agonist) | EC50 [5] | EC50 [6] | remaining at 1 h [7] | activity at 0.25 h, 10 µM (CYP2D6) | activity at 0.25 h, 10 µM (CYP2C9) | remaining at 1 h [8] | Activity [9] | activity at 0.25 h, 10 µM (CYP1A2) | remaining at 1 h [10] | Activity [4] | remaining at 0.5 h [11] | remaining at 0.5 h [12] | remaining at 0.5 h [13] | EC50 [1] | EC50 [2] | EC50 [3]
CCCCCCCCCCCCC/C=C/[C@@H](O)[C@@H](N)COP(=O)(O)O | – | – | – | – | – | – | – | – | – | – | – | – | – | – | – | 92 nM | 9 nM | 22 nM
CC(C)Oc1ccc(COc2ccc3c(c2)CCN(C(=O)CCNS(C)(=O)=O)C3)cc1C#N | – | – | – | 252 nM | – | – | – | – | 122% | – | – | 23% | 41.7% | 29.7% | 42.8% | – | – | –
CC(C)Oc1ccc(COc2ccc3c(c2)OCCN(S(=O)(=O)CC(=O)O)C3)cc1C#N | 84.6% | 104% | 67 nM | 50.5 nM | 87.7% | 91.1% | 87% | 99.6% | 91% | 88.1% | 97.1% | – | – | – | – | – | – | –
CC(C)Oc1ccc(COc2ccc3c(n2)CCN(S(=O)(=O)CCC(=O)O)C3)cc1C#N | 85.4% | 82% | 226 nM | 289 nM | – | 85.3% | 80.1% | – | 82% | 84.5% | – | – | 98.1% | 96% | 94.2% | – | – | –
CC(C)Oc1ccc(COc2ccc3c(c2)OCCN(S(=O)(=O)CCCO)C3)cc1C#N | 92.7% | 46% | – | 73.7 nM | 9.3% | 75.6% | 57.2% | 6.8% | 92% | 70.2% | 17.5% | – | – | – | – | – | – | –

Continued by falling EC50 [6], values first:

activity at 0.25 h, 10 µM (CYP3A4) | Activity ([4]; filed as agonist) | EC50 [5] | EC50 [6] | remaining at 1 h [7] | activity at 0.25 h, 10 µM (CYP2D6) | activity at 0.25 h, 10 µM (CYP2C9) | remaining at 1 h [8] | Activity [9] | activity at 0.25 h, 10 µM (CYP1A2) | remaining at 1 h [10] | Activity [4] | remaining at 0.5 h [11] | remaining at 0.5 h [12] | remaining at 0.5 h [13] | SMILES | EC50 [1] | EC50 [2] | EC50 [3]
82.4% | 69% | 502 nM | 94.7 nM | 8.7% | 89.4% | 67.7% | 113% | 81% | 100% | 16.2% | – | – | – | – | CC(C)Oc1ccc(COc2ccc3c(c2)CCCN(S(=O)(=O)CCCO)C3)cc1C#N | – | – | –
84.7% | 68% | 618 nM | 11.1 nM | 10.7% | 79.1% | 53.7% | 13.1% | 116% | 85.1% | 15.2% | – | – | – | – | CC(C)Oc1ccc(COc2ccc3c(c2)CCCN(S(=O)(=O)CCO)C3)cc1C#N | – | – | –
